SMILES strings stand for the structures.

The values that follow come from patent US5270304A, “Therapeutic 2-alkynyl adenosine agent for ischemic diseases of the heart or brain” (priority 1988, dated 1993).

Data set [1] relates to atrioventricular conduction. In words: Effect on atrioventricular conduction (atrioventricular block appearance ratio). In kind it is in vivo, guinea pigs. The note with it: for Atrioventricular Block Appearance Ratio (Number of Animals Showing Appearance/Number of Animals Used): guinea pigs, second degree block, after intravenous 300 μg/kg. How it is done: Each of male guinea pigs weighing 360 to 600 g, after being anesthetized by intraperitoneal administration of 1.4 g/kg of urethane, was fixed on the back, and the trachea was cut open for ensuring airway, a polyethylene tube being inserted thereinto. The blood pressure was measured through a carrier amplifier by connecting the cannula inserted into the left common carotid artery to a pressure transducer. The electrocardiogram was recorded by means of a bioelectric amplifier according to the second induction method, and the PQ interval was measured from the electrocardiogram. The test drug was administered through the left femoral vein, and the presence or absence of appearance of atrioventricular block is represented by the appearance ratio of the second degree of atrioventricular block (number of animals showing appearance/number of animals used) by the test drug administration.

The nature of data set [2]: in vivo. To be noted: dog.
Procedure: (§2) Female and male adult mongrel dogs weighing 10 to 15 kg were used. After each dog was anesthetized by intravenous administration of 30 mg/kg of pentobarbital sodium, it was fixed on the back, and the left lower abdominal portion was cut open under artificial respiration to expose the left renal artery. Under heparin sodium treatment, a polyethylene cannula was inserted into the renal artery, and at the other end of the cannula was set a probe for blood flow measurement. Self-perfusion was effected by means of a tube for blood perfusion led from the left femoral artery and connected to the probe, and the renal artery blood flow was measured by means of an electromagnetic blood flow meter.
(§3) The test drug was injected intraarterially into the renal artery.
Data set [3] deals with vertebral artery. The experiment in a line: Vertebral artery blood flow increasing effect. It counts as in vivo, mongrel dogs. The note with it: Canis lupus familiaris; anesthetized dogs, intraarterial into vertebral artery; 100% = increase by 100 μg/kg papaverine hydrochloride. As for the experimental part: The chests of female and male adult mongrel dogs weighing 8 to 13 kg, under anesthesia by intravenous administration of pentobarbital sodium, were opened under artificial respiration along the median line to expose the left vertebral artery.
The test drug was injected intraarterially into the vertebral artery.

Data set [4] concerns platelet aggregation. In words: Platelet aggregation inhibitory effect (ADP-induced aggregation of washed platelets). To be noted: Oryctolagus cuniculus, washed rabbit platelets, 10 μM adenosine 5'-diphosphate, drug added 3 min before. It counts as cell-based, Nippon white rabbits. How it is done:
Male Nippon white rabbits weighing 2.0 to 2.5 kg were used. […] Next, centrifugation was carried out at 140×g for 15 minutes, and the supernatant (platelet-enriched plasma: PRP) was collected. The PRP was centrifuged at 1300×g for 7 minutes. The platelet pellets obtained were washed with a HEPES buffer for platelet washing (pH 6.5) and centrifuged at 1300×g for 7 minutes. […] For assaying platelet aggregation ability, an aggregometer was used, and 10 μl of a test drug was added to 380 μl of the platelet suspension. Three minutes later, 10 μl of a platelet aggregating substance (10 μM adenosine 5'-diphosphate at a final concentration) was added thereto to induce aggregation. […]

The test system of data set [5] is ICR mice. In words: Brain protecting effect: normobaric hypoxia method. It counts as in vivo. The note with it: 30 min before 96% N2/4% O2, (±S.E.), control 126.8 ±10.7. How it is done: When the brain falls into hypoxia by cerebral circulatory disorder, its function will be rapidly and irreversibly lost. Accordingly, the pharmacological activities of the drugs were evaluated with the extension time relative to the survival time of the test animals under hypoxia or anoxia induced by changing gas phase components or by a drug.
Evaluation of the pharmacological activity by the normobaric hypoxia method was conducted by following the method of Yasuda et al. (Arch. Int. Pharmacodyn, 233, 136-144 (1978)) as described below.
Animals used were 8 to 11 male ICR mice of 7 weeks age (Clea Japan) per group.
The mice were placed in a desiccator made of glass, and hypoxia was induced by passing a gas mixture of 96% N2 and 4% O2 at a flow rate of 5 liters/min. The time after the passing of the gas into the desiccator to the respiration arrest of each mouse was measured and defined as the survival time.
The test drug was administered intraperitoneally 30 minutes before the initiation of gas passing. The average survival times for the control group and the group to which the test drug was administered were calculated.
The test drug was suspended in a physiological saline containing 0.5% CMC (carboxymethyl cellulose), and the dosage was 0.1 ml per 10 g of body weight. To the mice of the control group was administered 0.5% of the CMC physiological saline in the same manner. The statistical analysis was conducted according to the student's t-test.

In data set [6] the test system is coronary artery / renal artery. The experiment in a line: Safety coefficient (margin of safety from renal blood flow reduction and coronary artery blood flow increase). On the set-up: species or system mongrel dogs. The text has this:
As described above, the 2-alkynyladenosine, which is the active ingredient of the drug of the present invention, has a remarkable platelet aggregation inhibitory effect, blood flow increasing effect of various blood vessels (coronary artery and vertebral artery) and brain protecting effect in combination. […] To describe in more detail, the 2-alkynyladenosine, which is the active ingredient of the present drug, has an extremely high ratio of the primary effects such as platelet aggregation inhibitory effect, blood flow increasing effect of various blood vessels, and brain protecting effect to the side-effects such as atrioventricular block appearance ratio and renal blood flow reduction effect, that is, the 2-alkynyladenosine has an extremely broad margin of safety as compared to the prior compounds. For example, the margins of safety (coefficients) of the 2-alkynyladenosine calculated on the basis of the results in TABLE 2 and TABLE 4 by taking an example of coronary artery blood flow increasing effect as the primary effect and renal blood flow reduction effect as the side-effect are as shown below in TABLE 5. From TABLE 5, it can be understood that the 2-alkynyladenosine is a compound having a broader margin of safety as compared with adenosine.

The test system of data set [7] is ICR mice. The experiment in a line: Brain protecting effect: potassium cyanide (KCN)-induced anoxia method. It counts as in vivo. The note with it: 30 min before 2.5 mg/kg KCN, (±S.E.), * P < 0.05.
A short description of data set [8]: Acute toxicity. To be noted: mouse, in vivo; mice, oral administration, estimated. As for the experimental part:
(§1) By the use of Slc:ICR mice (7 to 8 weeks old), the acute toxicity tests of Compound 4 (n=5) and Compound 12 (n=13) were conducted.

Data set [9] concerns Slc:ICR mice. The experiment in a line: Acute toxicity. The note with it: mouse, in vivo, po, 1000 mg/kg. How it is done: as §1
Data set [10] deals with coronary artery. The experiment in a line: Coronary artery blood flow increasing effect. It counts as in vivo, mongrel dogs. The note with it: Canis lupus familiaris; anesthetized dogs, intraarterial into coronary artery; 100% = reactive hyperemia after 15 s occlusion. As for the experimental part:
Adult mongrel dogs weighing 9 to 15 kg were anesthetized with pentobarbital sodium, and the chest of each was opened under artificial respiration. After pericardium excision, the left anterior descending coronary artery was peeled off from the surrounding tissues, a probe for blood flow measurement was set under heparin sodium treatment, and the coronary blood flow was measured by the use of an electromagnetic blood flow meter.
The test drug was injected intraarterially into the coronary artery.

The nature of data set [11]: Effect on renal blood flow (renal blood flow reduction effect). To be noted: dog, in vivo.
Procedure: as §2, §3

With `CCCCC#Cc1nc(N)c2ncn([C@@H]3O[C@H](CO)[C@@H](O)[C@H]3O)c2n1` [Compound 2, 2-hexynyladenosine], the “atrioventricular block appearance ratio compared with adenosine” value in data set [1] (300 μg/kg intravenous) is listed as “same atrioventricular block appearance ratio as that of adenosine”. The “Atrioventricular Block Appearance Ratio (Number of Animals Showing Appearance/Number of Animals Used)” value in data set [1] is recorded as 6/6. Besides, the ED50 – broadly, the midpoint of the dose-response relation – in [2] turned out to be 0.00015 mg/kg; in data set [3], 0.00014 mg/kg. The midpoint of inhibition in data set [4], the IC50, lay at 61 nM. Further, the “Average Survival Time, Normobaric Hypoxia Method” value in data set [5] (0.1 mg/kg i.p.) was 171.9 (±22.1) sec; in data set [5] (0.3 mg/kg i.p.), 169.2 (±23.5) sec; in data set [5] (1.0 mg/kg i.p., ** P < 0.01) it was 217.3 (±26.2) sec. In data set [6] (dog, in vivo), the “Safety Coefficient” value was 75. Further, in data set [7] (1.0 mg/kg i.p., control (1) 39.8 (±2.4)), the “Average Survival Time, Potassium Cyanide Induced Anoxia Method” value was 50.05 (±3.8) sec.
As to `CCCCCCCC#Cc1nc(N)c2ncn([C@@H]3O[C@H](CO)[C@@H](O)[C@H]3O)c2n1` [Compound 5], the “Atrioventricular Block Appearance Ratio (Number of Animals Showing Appearance/Number of Animals Used)” value in data set [1] is 0/6. The ED50 is above 0.003 mg/kg in [2] and 0.0012 mg/kg in data set [3]. Moreover, the IC50 (commonly the concentration that inhibits the measured activity by half) in [4] was determined as 210 nM. In addition, the “Safety Coefficient” value in data set [6] (dog, in vivo) is reported as above 40.
With `CCCCCCC#Cc1nc(N)c2ncn([C@@H]3O[C@H](CO)[C@@H](O)[C@H]3O)c2n1` [Compound 4, 2-octynyladenosine], the “Atrioventricular Block Appearance Ratio (Number of Animals Showing Appearance/Number of Animals Used)” value in data set [1] was 1/6. Moreover, the ED50 in data set [2] was above 0.003 mg/kg; in [3] it was 0.0004 mg/kg. The same compound gave an IC50 in [4] of 140 nM. In addition, in data set [8], the LD50 (commonly the dose expected to kill half of the subjects tested) is at least 1000 mg/kg. Moreover, the lethal cases result in [9] is given as “no lethal case was recognized”. For the same compound, the “Average Survival Time, Normobaric Hypoxia Method” value in data set [5] (0.3 mg/kg i.p.) was 128.7 (±4.8) sec; in data set [5] (1.0 mg/kg i.p., ** P < 0.01), 222.9 (±25.9) sec; in [5] (3.0 mg/kg i.p., ** P < 0.01), 230.6 (±26.7) sec. In data set [6] (dog, in vivo), the “Safety Coefficient” value is reported as above 375.
On to `CCCCCCCCC#Cc1nc(N)c2ncn([C@@H]3O[C@H](CO)[C@@H](O)[C@H]3O)c2n1` [Compound 6], for which the “Atrioventricular Block Appearance Ratio (Number of Animals Showing Appearance/Number of Animals Used)” value in [1] is given as 1/6. Further, the figures for the ED50 in [2], in [3] and in [10] were above 0.003 mg/kg, above 0.003 mg/kg and 0.00015 mg/kg, respectively. Besides, the midpoint of inhibition in data set [4], the IC50, lay at 720 nM. For the same compound, the “Safety Coefficient” value in [6] (dog, in vivo) was above 20.
As for `CCCCCCCCCCCCCCC#Cc1nc(N)c2ncn([C@@H]3O[C@H](CO)[C@@H](O)[C@H]3O)c2n1` [Compound 12, 2-hexadecynyladenosine], the “Atrioventricular Block Appearance Ratio (Number of Animals Showing Appearance/Number of Animals Used)” value in data set [1] is 0/6. The figures for the ED50 in [2], in data set [3] and in data set [10] were above 0.003 mg/kg, above 0.003 mg/kg and above 0.0001 mg/kg, respectively. This compound also returned a concentration for half-maximal inhibition (IC50) in [4] above 3100 nM. The 50% lethal dose (LD50) in [8] is at least 1000 mg/kg. In [9], the lethal cases result is “no lethal case was recognized”. Besides, the “Safety Coefficient” value in [6] (dog, in vivo) is given as 30. Besides, in data set [7] (30 mg/kg i.p., control (2) 41.8 (±1.9)), the “Average Survival Time, Potassium Cyanide Induced Anoxia Method” value is on record as 76.7 (±11.7) sec.
Consider `Nc1ncnc2c1ncn2[C@@H]1O[C@H](CO)[C@@H](O)[C@H]1O` [Adenosine], for which the “Atrioventricular Block Appearance Ratio (Number of Animals Showing Appearance/Number of Animals Used)” value in [1] is on record as 6/6. Besides, the ED50 in [3] was 0.00052 mg/kg; in data set [11] it was 0.0002 mg/kg; in [10], 0.0001 mg/kg. Moreover, the IC50 in data set [4] was 3200 nM. In data set [6] (from TABLE 2 coronary artery blood flow increasing effect and TABLE 4 renal blood flow reduction effect), the “Safety Coefficient” value is 2.
